Results taken from a compilation of properties of binary mixtures (doi:10.1021/jp3012602).

Assay: xn = mol fraction of the nth substance listed
Details: 101 kPa

CCCC[N+]1(C)CCCC1.O=S(=O)([N-]S(=O)(=O)C(F)(F)F)C(F)(F)F + CCC[N+]1(C)CCCC1.O=S(=O)([N-]S(=O)(=O)C(F)(F)F)C(F)(F)F
x1 = 1
Details | electrical conductivity [S/m] | viscosity [mPa·s]
293.15 K | 0.222 | –
313.15 K | 0.471 | 42
333.15 K | 0.827 | 21.7
353.15 K | 1.23 | 12.9

CCC[N+]1(C)CCCC1.N#C[N-]C#N + CCC[N+]1(C)CCCC1.O=S(=O)([N-]S(=O)(=O)C(F)(F)F)C(F)(F)F
Details | electrical conductivity, 293.15 K [S/m] | electrical conductivity, 313.15 K [S/m] | electrical conductivity, 333.15 K [S/m] | viscosity, 293.15 K [mPa·s] | viscosity, 313.15 K [mPa·s] | viscosity, 333.15 K [mPa·s] | viscosity, 353.15 K [mPa·s]
x1 = 0.25 | 0.44 | 0.842 | – | 63.1 | 29.7 | – | 10.4
x1 = 0.5 | 0.733 | 1.34 | 2.16 | 51 | 25.3 | 14.8 | 9.58
x1 = 0.75 | 0.982 | 1.75 | – | 44.9 | 21.6 | – | 8.66
x1 = 1 | 1.57 | 2.67 | 4.44 | – | 18.6 | 11.7 | 7.95

CC[n+]1ccn(C)c1.O=S(=O)([N-]S(=O)(=O)C(F)(F)F)C(F)(F)F + CCC[N+]1(C)CCCC1.O=S(=O)([N-]S(=O)(=O)C(F)(F)F)C(F)(F)F
x1 = 1
Details | electrical conductivity [S/m] | viscosity [mPa·s]
293.15 K | 0.752 | –
313.15 K | 1.35 | 19.9
333.15 K | 2.1 | 12
353.15 K | 3.05 | 7.97

CCC[N+]1(C)CCCC1.O=S(=O)([N-]S(=O)(=O)C(F)(F)F)C(F)(F)F + CC[n+]1ccn(C)c1.O=S(=O)([N-]S(=O)(=O)C(F)(F)F)C(F)(F)F
Details | electrical conductivity, 293.15 K [S/m] | electrical conductivity, 313.15 K [S/m] | electrical conductivity, 333.15 K [S/m] | electrical conductivity, 353.15 K [S/m] | viscosity, 293.15 K [mPa·s] | viscosity, 313.15 K [mPa·s] | viscosity, 333.15 K [mPa·s] | viscosity, 353.15 K [mPa·s]
x2 = 0 | 0.32 | 0.678 | – | – | – | 34.4 | – | –
x2 = 0.25 | 0.408 | 0.801 | 1.34 | 2 | 63.6 | 29.4 | 16.6 | 10.5
x2 = 0.5 | – | 0.985 | 1.62 | 2.37 | – | 25.8 | 14.9 | 9.57
x2 = 0.75 | 0.633 | 1.16 | 1.85 | 2.66 | 45 | 22.6 | 13.3 | 8.77
